Measurements from patent US12521393B2, “Cytotoxicity targeting chimeras for CCR2-expressing cells” (GLAXOSMITHKLINE INTELLECTUAL PROPERTY DEVELOPMENT LIMITED, priority 2021, dated 2026).

Experiments:
[1] = tested on: endogenous target monocytes in human PBMC; assay: PBMC ex vivo monocyte depletion flow cytometry assay (Example 200); assay type: cell-based; conditions: with anti-cotinine antibody (SEQ ID NO: 11/12), 18-24 hours, EC50 in molar, read-out: Ex Vivo Depletion Assay pEC50 (converted)
How it was run: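 Monocyte depletion is reported as pEC50, averaged or given individually across runs, and read by flow cytometry staining CD45, CD14 and CD4 with a viability dye. Compounds, diluted four-fold over 11 points from 1 mM DMSO stocks, were combined with 30 μg/mL Fc-enhanced anti-cotinine antibody and human PBMC, then incubated 18-24 h at 37° C.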

[2] = molecular target: anti-cotinine antibody (SEQ ID NO: 11/12, rabbit variable region with human IgG1 Fc DE mutation); assay: SPR binding of anti-cotinine antibody to ARM compounds, Biacore T200, 37° C. (Example 202); conditions: SPR Biacore T200, 37° C., pH 7.4, antibody SEQ ID NO: 11/12 captured on protein A; Kd in molar
Procedure: Anti-cotinine antibodies having a heavy chain sequence of SEQ ID NO: 11 and a light chain sequence of SEQ ID NO: 12 (rabbit variable region with human IgG1 Fc domain containing a DE mutation (S239D/1332E)) were captured on one or more flow cells of a protein A sensor chip (Cytiva) using a Biacore T200 while reserving flow cell 1 as a reference. Following capture, a 3000 second wait step was included to reduce drift during compound analysis. ARM compounds of Formula (I) were then injected at 100 μL/min with 200 and 2000 second association and dissociation times. The entire experiment was run at 37° C. with running buffer containing 10 mM HEPES pH 7.4, 150 mM NaCl, 0.005% P20 and 1% DMSO. ARM compounds of Formula (I) were titrated with a top concentration of 200 nM using a 3-fold 5-point dilution series and a corresponding 5-injection buffer cycle was run for blank subtraction. Data were double referenced by subtracting the response of the reference flow cell from that of the antibody-containing flow cell and subsequently subtracting the referenced blank sensorgrams. Following compound analysis, the surface was regenerated using a 30 second injection of pH 1.5 glycine at a flow rate of 30 μL/min after which antibody was re-captured. The experiment was run using Biacore T200 control software and evaluated using Biacore T200 Evaluation software. Curves were fit with a 1:1 kinetic binding model to obtain kon (1/Ms), koff(1/s), Kd (M) determined as koff/kon, and residence time determined as 1/koff (s).
Anti-cotinine antibody was tested for binding to ARMs compounds of Formula (I) of the invention in the above assay in or more experimental runs and the results are shown in Table 5 below. Affinity is reported as a pKd value. The pKd value is the negative log of the Kd value, wherein the Kd value is the dissociation constant measured in molar (M) as noted above. For compounds tested in more than one experimental run, the pKd value is reported as an average

Structure (SMILES)	EC50 [1]	pKd of Antibody for ARM Compound of Formula (I) [2]
CC(C)N(C)[C@@H]1CC[C@H](N2CC[C@H](Nc3ncnc4ccc(C(F)(F)F)cc34)C2=O)[C@H](NC(=O)COCCNC(=O)CCOCCNC(=O)COCCNC(=O)[C@H]2CC(=O)N(C)[C@@H]2c2cccnc2)C1 [Example 104, (2S,3S)-N-(18-(((1R,2S,5R)-5-(Isopropyl(methyl)amino)-2-((S)-2-oxo-3-((6-(trifluoromethyl)quinazolin-4-yl)amino)pyrrolidin-1-yl)cyclohexyl)amino)-5,12,18-trioxo-3,9,16-trioxa-6,13-diazaoctadecyl)-1-methyl-5-oxo-2-(pyridin-3-yl)pyrrolidine-3-carboxamide]	631 pM	9.051
CC(C)N(C)[C@@H]1CC[C@H](N2CC[C@H](Nc3ncnc4ccc(C(F)(F)F)cc34)C2=O)[C@H](NC(=O)COCCNC(=O)[C@H]2CC[C@@H](NC(=O)CCOCCNC(=O)[C@H]3CC(=O)N(C)[C@@H]3c3cccnc3)CC2)C1 [Example 109, (2S,3S)-N-(2-(3-(((1S,4R)-4-((2-(2-(((1R,2S,5R)-5-(Isopropyl(methyl)amino)-2-((S)-2-oxo-3-((6-(trifluoromethyl)quinazolin-4-yl)amino)pyrrolidin-1-yl)cyclohexyl)amino)-2-oxoethoxy)ethyl)carbamoyl)cyclohexyl)amino)-3-oxopropoxy)ethyl)-1-methyl-5-oxo-2-(pyridin-3-yl)pyrrolidine-3-carboxamide]	631 pM	8.951
CC(C)N(C)[C@@H]1CC[C@H](N2CC[C@H](Nc3ncnc4ccc(C(F)(F)F)cc34)C2=O)[C@H](NC(=O)CCOCCNC(=O)[C@H]2CC[C@@H](NC(=O)CCOCCNC(=O)[C@H]3CC(=O)N(C)[C@@H]3c3cccnc3)CC2)C1 [Example 110, (2S,3S)-N-(2-(3-(((1S,4R)-4-((2-(3-(((1R,2S,5R)-5-(Isopropyl(methyl)amino)-2-((S)-2-oxo-3-((6-(trifluoromethyl)quinazolin-4-yl)amino)pyrrolidin-1-yl)cyclohexyl)amino)-3-oxopropoxy)ethyl)carbamoyl)cyclohexyl)amino)-3-oxopropoxy)ethyl)-1-methyl-5-oxo-2-(pyridin-3-yl)pyrrolidine-3-carboxamide]	50.1 pM	8.9085
CC(C)N(C)[C@@H]1CC[C@H](N2CC[C@H](Nc3ncnc4ccc(C(F)(F)F)cc34)C2=O)[C@H](NC(=O)[C@H]2CC[C@@H](NC(=O)CCO[C@H]3CC[C@H](OCCNC(=O)[C@H]4CC(=O)N(C)[C@@H]4c4cccnc4)CC3)CC2)C1 [Example 112, (2S,3S)-N-(2-(((1S,4S)-4-(3-(((1S,4S)-4-(((1R,2S,5R)-5-(Isopropyl(methyl)amino)-2-((S)-2-oxo-3-((6-(trifluoromethyl)quinazolin-4-yl)amino)pyrrolidin-1-yl)cyclohexyl)carbamoyl)cyclohexyl)amino)-3-oxopropoxy)cyclohexyl)oxy)ethyl)-1-methyl-5-oxo-2-(pyridin-3-yl)pyrrolidine-3-carboxamide]	794 pM	9.343
CC(C)N(C)[C@@H]1CC[C@H](N2CC[C@H](Nc3ncnc4ccc(C(F)(F)F)cc34)C2=O)[C@H](NC(=O)[C@H]2CC[C@H](NC(=O)CCO[C@H]3CC[C@H](OCCNC(=O)[C@H]4CC(=O)N(C)[C@@H]4c4cccnc4)CC3)CC2)C1 [Example 113, (2S,3S)-N-(2-(((1R,4S)-4-(3-(((1R,4R)-4-(((1R,2S,5R)-5-(Isopropyl(methyl)amino)-2-((S)-2-oxo-3-((6-(trifluoromethyl)quinazolin-4-yl)amino)pyrrolidin-1-yl)cyclohexyl)carbamoyl)cyclohexyl)amino)-3-oxopropoxy)cyclohexyl)oxy)ethyl)-1-methyl-5-oxo-2-(pyridin-3-yl)pyrrolidine-3-carboxamide]	3160 pM	9.767
CC(C)N(C)[C@@H]1CC[C@H](N2CC[C@H](Nc3ncnc4ccc(C(F)(F)F)cc34)C2=O)[C@H](NC(=O)[C@H]2C[C@@H](NC(=O)CCO[C@H]3CC[C@H](OCCNC(=O)[C@H]4CC(=O)N(C)[C@@H]4c4cccnc4)CC3)C2)C1 [Example 115, (2S,3S)-N-(2-(((1S,4S)-4-(3-(((1S,3S)-3-(((1R,2S,5R)-5-(Isopropyl(methyl)amino)-2-((S)-2-oxo-3-((6-(trifluoromethyl)quinazolin-4-yl)amino)pyrrolidin-1-yl)cyclohexyl)carbamoyl)cyclobutyl)amino)-3-oxopropoxy)cyclohexyl)oxy)ethyl)-1-methyl-5-oxo-2-(pyridin-3-yl)pyrrolidine-3-carboxamide]	158 pM	9.363
CC(C)N(C)[C@@H]1CC[C@H](N2CC[C@H](Nc3ncnc4ccc(C(F)(F)F)cc34)C2=O)[C@H](NC(=O)COCCNC(=O)COCCOCCNC(=O)CCNC(=O)[C@H]2CC(=O)N(C)[C@@H]2c2cccnc2)C1 [Example 143, (2S,3S)-N-(1-(((1R,2S,5R)-5-(Isopropyl(methyl)amino)-2-((S)-2-oxo-3-((6-(trifluoromethyl)quinazolin-4-yl)amino)pyrrolidin-1-yl)cyclohexyl)amino)-1,7,16-trioxo-3,9,12-trioxa-6,15-diazaoctadecan-18-yl)-1-methyl-5-oxo-2-(pyridin-3-yl)pyrrolidine-3-carboxamide]	2510 pM	9.275
CC(C)N(C)[C@@H]1CC[C@H](N2CC[C@H](Nc3ncnc4ccc(C(F)(F)F)cc34)C2=O)[C@H](NC(=O)COCCNC(=O)COCCNC(=O)CCOCCNC(=O)[C@H]2CC(=O)N(C)[C@@H]2c2cccnc2)C1 [Example 151, (2S,3S)-N-(1-(((1R,2S,5R)-5-(Isopropyl(methyl)amino)-2-((S)-2-oxo-3-((6-(trifluoromethyl)quinazolin-4-yl)amino)pyrrolidin-1-yl)cyclohexyl)amino)-1,7,13-trioxo-3,9,16-trioxa-6,12-diazaoctadecan-18-yl)-1-methyl-5-oxo-2-(pyridin-3-yl)pyrrolidine-3-carboxamide]	2000 pM	9.0755
CC(C)N(C)[C@@H]1CC[C@H](N2CC[C@H](Nc3ncnc4ccc(C(F)(F)F)cc34)C2=O)[C@H](NC(=O)CCOCCOCCOCCNc2c(NCCNC(=O)[C@H]3CC(=O)N(C)[C@@H]3c3cccnc3)c(=O)c2=O)C1 [Example 168, (2S,3S)-N-(2-((2-((2-(2-(2-(3-(((1R,2S,5R)-5-(Isopropyl(methyl)amino)-2-((S)-2-oxo-3-((6-(trifluoromethyl)quinazolin-4-yl)amino)pyrrolidin-1-yl)cyclohexyl)amino)-3-oxopropoxy)ethoxy)ethoxy)ethyl)amino)-3,4-dioxocyclobut-1-en-1-yl)amino)ethyl)-1-methyl-5-oxo-2-(pyridin-3-yl)pyrrolidine-3-carboxamide]	1000 pM	9.06
CC(C)N(C)[C@@H]1CC[C@H](N2CC[C@H](Nc3ncnc4ccc(C(F)(F)F)cc34)C2=O)[C@H](NC(=O)[C@H]2CC[C@@H](NC(=O)CCOCCNC(=O)COCCCNC(=O)[C@H]3CC(=O)N(C)[C@@H]3c3cccnc3)CC2)C1 [Example 175, (2S,3S)-N-(3-(2-((2-(3-(((1S,4s)-4-(((1R,2S,5R)-5-(Isopropyl(methyl)amino)-2-((S)-2-oxo-3-((6-(trifluoromethyl)quinazolin-4-yl)amino)pyrrolidin-1-yl)cyclohexyl)carbamoyl)cyclohexyl)amino)-3-oxopropoxy)ethyl)amino)-2-oxoethoxy)propyl)-1-methyl-5-oxo-2-(pyridin-3-yl)pyrrolidine-3-carboxamide]	631 pM	9.244
CC(C)N(C)[C@@H]1CC[C@H](N2CC[C@H](Nc3ncnc4ccc(C(F)(F)F)cc34)C2=O)[C@H](NC(=O)CCCC(=O)N[C@H]2CC[C@H](CNC(=O)CCOCCNC(=O)[C@H]3CC(=O)N(C)[C@@H]3c3cccnc3)CC2)C1 [Example 180, N^1-((1R,2S,5R)-5-(isopropyl(methyl)amino)-2-((S)-2-oxo-3-((6-(trifluoromethyl)quinazolin-4-yl)amino)pyrrolidin-1-yl)cyclohexyl)-N^5-((1S,4R)-4-((3-(2-((2S,3S)-1-methyl-5-oxo-2-(pyridin-3-yl)pyrrolidine-3-carboxamido)ethoxy)propanamido)methyl)cyclohexyl)glutaramide]	1260 pM	9.249
